Reference: patent publication US20250099478A1, “PLASMA KALLIKREIN INHIBITORS” (Merck Sharp & Dohme LLC, priority 2022, published 2025)

What follows are compounds tested against T1, Human plasma kallikrein (Homo sapiens, UniProt P03952) (assay: Plasma Kallikrein Assay). Details: purified Human plasma kallikrein 0.5 nM, substrate Acetyl-K-P-R-AFC; read-out: PKal IC50.
T1 construct: yields a heavy chain (371 amino acids) and a light chain (248 amino acids); purchased Enzyme Research Laboratories
Type: biochemical
Procedure: The effectiveness of a compound of the present invention as an inhibitor of plasma kallikrein can be determined using a relevant purified serine protease, and an appropriate synthetic substrate. The rate of hydrolysis of the chromogenic or fluorogenic substrate by the relevant serine protease was measured both in the absence and presence of compounds of the present invention. Assays were conducted at rt or at 37° C. […] A decrease in the rate of fluorescence change in the presence of inhibitor is indicative of enzyme inhibition. Such methods are known to one skilled in the art. The results of this assay are expressed as the half-maximal inhibitory concentrations (IC50), or the inhibitory constant, Ki.
Plasma kallikrein determinations were made in 50 mM HEPES buffer at pH 7.4 containing 150 mM NaCl, 5 mM CaCl2), and 0.1% PEG 8000 (polyethylene glycol; Fisher Scientific). Determinations were made using purified Human plasma kallikrein at a final concentration of 0.5 nM (Enzyme Research Laboratories) and the synthetic substrate, Acetyl-K-P-R-AFC (Sigma #C6608) at a concentration of […].
Times required to achieve equilibration between enzyme and inhibitor were determined in control experiments. […] IC50 was determined by inflection point from a four parameter logistic curve fit. Ki was calculated using the Cheng Prusoff equation, Ki=IC50/(1+([S]/Km)).

T1 sequence (P03952 391-638 limits assumed): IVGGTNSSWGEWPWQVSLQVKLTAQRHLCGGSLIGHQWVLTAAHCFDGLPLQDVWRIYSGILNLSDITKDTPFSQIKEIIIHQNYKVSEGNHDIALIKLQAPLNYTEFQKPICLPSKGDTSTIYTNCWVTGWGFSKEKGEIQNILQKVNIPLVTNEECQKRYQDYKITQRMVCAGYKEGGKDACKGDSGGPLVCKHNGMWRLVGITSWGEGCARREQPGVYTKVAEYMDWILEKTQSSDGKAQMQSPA
T1 sequence (P03952 20-390 partner limits assumed): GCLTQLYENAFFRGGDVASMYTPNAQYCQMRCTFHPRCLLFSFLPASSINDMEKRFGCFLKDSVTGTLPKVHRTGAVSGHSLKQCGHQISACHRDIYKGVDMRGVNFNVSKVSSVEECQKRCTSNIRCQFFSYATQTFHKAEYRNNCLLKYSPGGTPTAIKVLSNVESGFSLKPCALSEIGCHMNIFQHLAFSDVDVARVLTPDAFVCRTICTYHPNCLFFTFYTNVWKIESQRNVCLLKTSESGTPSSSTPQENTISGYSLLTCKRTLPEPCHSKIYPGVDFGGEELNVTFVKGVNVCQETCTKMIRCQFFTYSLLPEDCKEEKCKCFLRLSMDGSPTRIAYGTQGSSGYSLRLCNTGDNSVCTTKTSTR

| Compound | IC50 [nM] |
| --- | --- |
| O=C1Nc2ccc(Cl)c(F)c2[C@@]2(CCCN(C(=O)c3cnn(Cc4ccc(-n5cc[nH]c5=O)cc4)c3)C2)O1 [Example 50, (R)-6-Chloro-5-fluoro-1′-(1-(4-(2-oxo-2,3-dihydro-1H-imidazol-1-yl)benzyl)-1H-pyrazole-4-carbonyl)spiro[benzo[d][1,3]oxazine-4,3′-piperidin]-2(1H)-one] | 13.7 |
| CN1CCOc2cc(Cn3cc(C(=O)N4CCC[C@@]5(C4)OC(=O)Nc4ccc(Cl)c(F)c45)cn3)ccc21 [Example 51, (R)-6-Chloro-5-fluoro-1′-(1-((4-methyl-3,4-dihydro-2H-benzo[b][1,4]oxazin-7-yl)methyl)-1H-pyrazole-4-carbonyl)spiro[benzo[d][1,3]oxazine-4,3′-piperidin]-2(1H)-one] | 35.1 |
| O=C(O)COc1ccc(Cn2cc(C(=O)N3CCC[C@@]4(C3)OC(=O)Nc3ccc(Cl)c(F)c34)cn2)cc1 [Example 52, (R)-2-(4-((4-(6-Chloro-5-fluoro-2-oxo-1,2-dihydrospiro[benzo[d][1,3]oxazine-4,3′-piperidine]-1′-carbonyl)-1H-pyrazol-1-yl)methyl)phenoxy)acetic acid] | 24.1 |
| O=C1Nc2ccc(Cl)c(F)c2[C@@]2(CCCN(C(=O)c3cnn(Cc4ccc(-c5c[nH]c(=O)o5)cc4)c3)C2)O1 [Example 53, (R)-6-Chloro-5-fluoro-1′-(1-(4-(2-oxo-2,3-dihydrooxazol-5-yl)benzyl)-1H-pyrazole-4-carbonyl)spiro[benzo[d][1,3]oxazine-4,3′-piperidin]-2(1H)-one] | 18.5 |
| O=C1Nc2ccc(Cl)c(F)c2[C@@]2(CCCN(C(=O)c3cnn(Cc4ccc5c(c4)OCCO5)c3)C2)O1 [Example 54, (R)-6-Chloro-1′-(1-((2,3-dihydrobenzo[b][1,4]dioxin-6-yl)methyl)-1H-pyrazole-4-carbonyl)-5-fluorospiro[benzo[d][1,3]oxazine-4,3′-piperidin]-2(1H)-one] | 29.8 |
| O=C1Nc2ccc(Cl)c(F)c2[C@@]2(CCCN(C(=O)c3cnn(Cc4ccc5ccsc5c4)c3)C2)O1 [Example 55, (R)-1′-(1-(Benzo[b]thiophen-6-ylmethyl)-1H-pyrazole-4-carbonyl)-6-chloro-5-fluorospiro[benzo[d][1,3]oxazine-4,3′-piperidin]-2(1H)-one] | 17.1 |
| O=C1Nc2ccc(Cl)c(F)c2[C@@]2(CCCN(C(=O)c3cnn(Cc4ccc5c(c4)COCC5)c3)C2)O1 [Example 56, (R)-6-Chloro-5-fluoro-1′-(1-(isochroman-7-ylmethyl)-1H-pyrazole-4-carbonyl)spiro[benzo[d][1,3]oxazine-4,3′-piperidin]-2(1H)-one] | 10.9 |
| Nc1noc2ccc(Cn3cc(C(=O)N4CCC[C@@]5(C4)OC(=O)Nc4ccc(Cl)c(F)c45)cn3)cc12 [Example 57, (R)-1′-(1-((3-Aminobenzo[d]isoxazol-5-yl)methyl)-1H-pyrazole-4-carbonyl)-6-chloro-5-fluorospiro[benzo[d][1,3]oxazine-4,3′-piperidin]-2(1H)-one] | 29.7 |
| O=C1Nc2ccc(Cl)c(F)c2[C@@]2(CCCN(C(=O)c3cnn(Cc4ccc5c(c4)CC(CO)O5)c3)C2)O1 (stereo partly drawn) [Example 58, (4R)-6-Chloro-5-fluoro-1′-(1-((2-(hydroxymethyl)-2,3-dihydrobenzofuran-5-yl)methyl)-1H-pyrazole-4-carbonyl)spiro[benzo[d][1,3]oxazine-4,3′-piperidin]-2(1H)-one] | 10.7 |
| CC1(C)COc2cc(Cn3cc(C(=O)N4CCC[C@@]5(C4)OC(=O)Nc4ccc(Cl)c(F)c45)cn3)ccc21 [Example 59, (R)-6-Chloro-1′-(1-((3,3-dimethyl-2,3-dihydrobenzofuran-6-yl)methyl)-1H-pyrazole-4-carbonyl)-5-fluorospiro[benzo[d][1,3]oxazine-4,3′-piperidin]-2(1H)-one] | 22.9 |
| O=C1Nc2ccc(Cl)c(F)c2[C@@]2(CCCN(C(=O)c3cnn(Cc4ccc5c(c4)COC5)c3)C2)O1 [Example 60, (R)-6-chloro-1′-(1-((1,3-dihydroisobenzofuran-5-yl)methyl)-1H-pyrazole-4-carbonyl)-5-fluorospiro[benzo[d][1,3]oxazine-4,3′-piperidin]-2(1H)-one] | 14.7 |
| O=C1Nc2ccc(Cl)c(F)c2[C@@]2(CCCN(C(=O)c3cnn(Cc4ccc5c(c4)CNC5=O)c3)C2)O1 [Example 61, (R)-6-chloro-5-fluoro-1′-(1-((1-oxoisoindolin-5-yl)methyl)-1H-pyrazole-4-carbonyl)spiro[benzo[d][1,3]oxazine-4,3′-piperidin]-2(1H)-one] | 36.5 |
| NS(=O)(=O)c1cccc(Cn2cc(C(=O)N3CCC[C@@]4(C3)OC(=O)Nc3ccc(Cl)c(F)c34)cn2)c1 [Example 62, (R)-3-((4-(6-chloro-5-fluoro-2-oxo-1,2-dihydrospiro[benzo[d][1,3]oxazine-4,3′-piperidine]-1′-carbonyl)-1H-pyrazol-1-yl)methyl)benzenesulfonamide] | 49.5 |
| CS(=O)(=O)c1cccc(Cn2cc(C(=O)N3CCC[C@@]4(C3)OC(=O)Nc3ccc(Cl)c(F)c34)cn2)c1 [Example 63, (R)-6-chloro-5-fluoro-1′-(1-(3-(methylsulfonyl)benzyl)-1H-pyrazole-4-carbonyl)spiro[benzo[d][1,3]oxazine-4,3′-piperidin]-2(1H)-one] | 42.6 |
| O=C1Nc2ccc(Cl)c(F)c2[C@@]2(CCCN(C(=O)c3cnn(Cc4ccc5c(c4)CNS5(=O)=O)c3)C2)O1 [Example 64, (R)-6-chloro-1′-(1-((1,1-dioxido-2,3-dihydrobenzo[d]isothiazol-5-yl)methyl)-1H-pyrazole-4-carbonyl)-5-fluorospiro[benzo[d][1,3]oxazine-4,3′-piperidin]-2(1H)-one] | 24.2 |
| O=C1Nc2ccc(Cl)c(F)c2[C@@]2(CCCN(C(=O)c3nnc(Cc4ccc(F)c(Cl)c4)[nH]3)C2)O1 [Example 87, (R)-6-Chloro-1′-(5-(3-chloro-4-fluorobenzyl)-4H-1,2,4-triazole-3-carbonyl)-5-fluorospiro[benzo[d][1,3]oxazine-4,3′-piperidin]-2(1H)-one] | 49.7 |
| O=C1Nc2ccc(Cl)c(F)c2[C@@]2(CCCN(C(=O)c3nnc(Cc4cccc(OC(F)F)c4)[nH]3)C2)O1 [Example 90, (R)-6-Chloro-1′-(5-(3-(difluoromethoxy)benzyl)-4H-1,2,4-triazole-3-carbonyl)-5-fluorospiro[benzo[d][1,3]oxazine-4,3′-piperidin]-2(1H)-one] | 33.4 |
| Cn1cc(-c2ccc(Cc3nnc(C(=O)N4CCC[C@@]5(C4)OC(=O)Nc4ccc(Cl)c(F)c45)[nH]3)cc2)cn1 [Example 91, (R)-6-Chloro-5-fluoro-1′-(5-(4-(1-methyl-1H-pyrazol-4-yl)benzyl)-4H-1,2,4-triazole-3-carbonyl)spiro[benzo[d][1,3]oxazine-4,3′-piperidin]-2(1H)-one] | 25.2 |
| O=C1Nc2ccc(Cl)c(F)c2[C@@]2(CCCN(C(=O)c3nnc([C@](O)(c4ccccc4)C(F)(F)F)[nH]3)C2)O1 [Example 108, (R)-6-Chloro-5-fluoro-1′-(5-((R)-2,2,2-trifluoro-1-hydroxy-1-phenylethyl)-4H-1,2,4-triazole-3-carbonyl)spiro[benzo[d][1,3]oxazine-4,3′-piperidin]-2(1H)-one] | 20.1 |
| Cc1cccc(Cc2n[nH]c(C(=O)N3CCC[C@@]4(C3)OC(=O)Nc3ccc(Cl)c(F)c34)n2)c1 [Example 113, (R)-6-Chloro-1′-(3-(3-methylbenzyl)-1H-1,2,4-triazole-5-carbonyl)-5-fluorospiro[benzo[d][1,3]oxazine-4,3′-piperidin]-2(1H)-one] | 18.3 |
| O=C1Nc2ccc(Cl)c(F)c2[C@@]2(CCCN(C(=O)c3nnc(Cc4ccccc4F)[nH]3)C2)O1 [Example 114, (R)-6-Chloro-5-fluoro-1′-(5-(2-fluorobenzyl)-4H-1,2,4-triazole-3-carbonyl)spiro[benzo[d][1,3]oxazine-4,3′-piperidin]-2(1H)-one] | 33.1 |
| O=C1Nc2ccc(Cl)c(F)c2[C@@]2(CCCN(C(=O)c3nnc(Cc4cccc(C(F)(F)F)c4)[nH]3)C2)O1 [Example 115, (R)-6-Chloro-5-fluoro-1′-(5-(3-(trifluoromethyl)benzyl)-4H-1,2,4-triazole-3-carbonyl)spiro[benzo[d][1,3]oxazine-4,3′-piperidin]-2(1H)-one] | 23.9 |
| O=C1Nc2ccc(Cl)c(F)c2[C@@]2(CCCN(C(=O)c3nnc(Cc4cccc(CO)c4)[nH]3)C2)O1 [Example 116, (R)-6-Chloro-5-fluoro-1′-(5-(3-(hydroxymethyl)benzyl)-4H-1,2,4-triazole-3-carbonyl)spiro[benzo[d][1,3]oxazine-4,3′-piperidin]-2(1H)-one] | 39.9 |
| O=C1Nc2ccc(Cl)c(F)c2[C@@]2(CCCN(C(=O)c3nnc(Cc4ccc5c(c4)CCO5)[nH]3)C2)O1 [Example 117, (R)-6-Chloro-1′-(5-((2,3-dihydrobenzofuran-5-yl)methyl)-4H-1,2,4-triazole-3-carbonyl)-5-fluorospiro[benzo[d][1,3]oxazine-4,3′-piperidin]-2(1H)-one] | 34.8 |
| O=C1Nc2ccc(Cl)c(F)c2[C@@]2(CCCN(C(=O)c3nnc(Cc4cccc(Cl)c4)[nH]3)C2)O1 [Example 118, (R)-6-Chloro-1′-(5-(3-chlorobenzyl)-4H-1,2,4-triazole-3-carbonyl)-5-fluorospiro[benzo[d][1,3]oxazine-4,3′-piperidin]-2(1H)-one] | 29.2 |
